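Exposure lasted 48 hours, with cells grown in 96-well plates and compounds tested at five concentrations. At the GI50, growth is halved.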 The source made the active and inactive calls. Cut-off read from the data, not from the text of the source: active = GI50 up to about 1.1 µM and inactive = higher.
Tests used:
Assay in all cases: inhibition of tumour cell growth, NCI panel, 48 h
[1] = tested on: SN12C
[2] = tested on: RXF 393
[3] = tested on: SF-539
[4] = tested on: SF-268
[5] = tested on: NCI/ADR-RES
[6] = tested on: MCF7
[7] = tested on: K562
[8] = tested on: SR
[9] = tested on: MDA-MB-231
[10] = tested on: CCRF-CEM
[11] = tested on: MDA-MB-435
[12] = tested on: A549
[13] = tested on: ACHN
[14] = tested on: U-251
[15] = tested on: SNB-19
[16] = tested on: HCT-15
[17] = tested on: HT-29
[18] = tested on: RPMI-8226
[19] = tested on: HOP-62
[20] = tested on: Hs-578T

| Compound | GI50 [1] | GI50 [2] | GI50 [3] | GI50 [4] | GI50 [5] | GI50 [6] | GI50 [7] | GI50 [8] | GI50 [9] | GI50 [10] | GI50 [11] | GI50 [12] | GI50 [13] | GI50 [14] | GI50 [15] | GI50 [16] [µM] | GI50 [17] | GI50 [18] | GI50 [19] | GI50 [20] |
| --- | --- | --- | --- | --- | --- | --- | --- | --- | --- | --- | --- | --- | --- | --- | --- | --- | --- | --- | --- | --- |
| Cc1nc2ccccc2c(=O)n1NC(=O)c1ccccc1[N+](=O)[O-] | > 100 µM (inactive) | > 10 µM (inactive) | > 100 µM (inactive) | > 100 µM (inactive) | > 100 µM (inactive) | > 100 µM (inactive) | > 100 µM (inactive) | > 100 µM (inactive) | > 100 µM (inactive) | > 100 µM (inactive) | > 100 µM (inactive) | > 100 µM (inactive) | > 100 µM (inactive) | > 100 µM (inactive) | > 100 µM (inactive) | > 100 | > 100 µM (inactive) | > 100 µM (inactive) | > 100 µM (inactive) | 33.9 µM (inactive) |
| COC(=O)C(/C(=N/N)C(=O)Nc1cc(Cl)c(Cl)cc1Cl)c1nc2ccc(Cl)cc2nc1O (stereo not given) | > 100 µM (inactive) | > 100 µM (inactive) | > 100 µM (inactive) | > 100 µM (inactive) | 84.5 µM (inactive) | > 100 µM (inactive) | > 100 µM (inactive) | 87.1 µM (inactive) | > 100 µM (inactive) | > 10 µM (inactive) | > 100 µM (inactive) | > 100 µM (inactive) | 44.8 µM (inactive) | > 100 µM (inactive) |  | > 100 | > 100 µM (inactive) | > 100 µM (inactive) | > 100 µM (inactive) | > 100 µM (inactive) |
| CC(C)(C)C1CC[C@H](O)[C@H]([C@@H](O)CC2CC(=O)N(c3ccccc3)C(=O)C2)C1 (stereo not given in full) | > 100 µM (inactive) | 64 µM (inactive) | > 100 µM (inactive) | > 100 µM (inactive) | 67.9 µM (inactive) | 44.2 µM (inactive) | 54.1 µM (inactive) | 40.9 µM (inactive) | 67.3 µM (inactive) | 51.9 µM (inactive) | 55.2 µM (inactive) | 67.5 µM (inactive) | 69 µM (inactive) | 55.8 µM (inactive) | > 100 µM (inactive) | 56.4 | 23.1 µM (inactive) | 46.2 µM (inactive) | > 100 µM (inactive) | > 100 µM (inactive) |
| CCc1[nH]nc(C(N)=O)c1/N=N/N(C)C | 44 µM (inactive) | > 100 µM (inactive) | 78.7 µM (inactive) | 47.2 µM (inactive) | 94.8 µM (inactive) | 30.9 µM (inactive) | 1.13 µM (inactive) | 10.1 µM (inactive) | > 100 µM (inactive) | 28.2 µM (inactive) | 64.6 µM (inactive) | 43.5 µM (inactive) | 36.5 µM (inactive) | 48.3 µM (inactive) | > 100 µM (inactive) | 68.4 | > 100 µM (inactive) | 81.5 µM (inactive) | 82.6 µM (inactive) | 67.9 µM (inactive) |
| O=C1Cc2c(-c3cccs3)cc(-c3ccccc3)nc2-c2ccccc2N1 | 67.5 µM (inactive) | 32.8 µM (inactive) | 22.7 µM (inactive) | 10.8 µM (inactive) | 18.5 µM (inactive) | 96.8 µM (inactive) | > 100 µM (inactive) | > 100 µM (inactive) | 9.48 µM (inactive) | > 100 µM (inactive) | 78 µM (inactive) | 93.1 µM (inactive) | 50.2 µM (inactive) | > 10 µM (inactive) | 47.9 µM (inactive) | 40.1 | 10.8 µM (inactive) | > 100 µM (inactive) | 24.7 µM (inactive) | 2.14 µM (inactive) |
| O=C1/C(=C\c2cccc(Oc3ccccc3)c2)SC(c2ccccc2)N1c1ccccc1Cl (stereo not given) | 26 µM (inactive) | 20.8 µM (inactive) | 19.1 µM (inactive) | 33 µM (inactive) | 27.9 µM (inactive) | 28.1 µM (inactive) | 23 µM (inactive) | 19.3 µM (inactive) | 30.3 µM (inactive) | 6.87 µM (inactive) | 23.3 µM (inactive) | 37.5 µM (inactive) | 39.6 µM (inactive) | 16.4 µM (inactive) | 24.4 µM (inactive) | 41.9 | 19.7 µM (inactive) | 13 µM (inactive) | 28.8 µM (inactive) | 16.5 µM (inactive) |
| COc1ccc(/C=C\c2cc(OC)c(OC)c(OC)c2)cc1OC(=O)CC(N)C(=O)O (stereo not given) | 0.00521 µM (active) | 0.00166 µM (active) | 0.00222 µM (active) | 0.00305 µM (active) | 0.000224 µM (active) | 0.00733 µM (active) | 0.000321 µM (active) | 0.00577 µM (active) | 0.00119 µM (active) | 0.000418 µM (active) | 0.000146 µM (active) | 0.00449 µM (active) | 0.00437 µM (active) | 0.00262 µM (active) | 0.0118 µM (active) | 0.00258 | 0.865 µM (active) | 0.00148 µM (active) | 0.00382 µM (active) | 0.000426 µM (active) |
| COc1ccc(/C=N/n2c(-c3ccccc3)n[nH]c2=O)c(OC)c1 | 44 µM (inactive) | 29.3 µM (inactive) | 28.4 µM (inactive) | 22.3 µM (inactive) | 29.2 µM (inactive) | 49.4 µM (inactive) | > 100 µM (inactive) | > 100 µM (inactive) | 51.5 µM (inactive) | > 100 µM (inactive) | > 100 µM (inactive) | 36.7 µM (inactive) | 29 µM (inactive) | 40.6 µM (inactive) | 1.13 µM (inactive) | > 100 | 26.6 µM (inactive) | > 100 µM (inactive) | 29.8 µM (inactive) | 37.2 µM (inactive) |
| CCn1c(SCC(=O)NNC(=S)Nc2ccc(F)cc2)nc2ccccc2c1=O | > 100 µM (inactive) | > 100 µM (inactive) | > 100 µM (inactive) | 79.8 µM (inactive) | > 100 µM (inactive) | > 100 µM (inactive) | 74.5 µM (inactive) | 49.4 µM (inactive) | > 100 µM (inactive) | > 100 µM (inactive) | > 100 µM (inactive) | > 100 µM (inactive) | > 100 µM (inactive) | > 100 µM (inactive) | > 100 µM (inactive) | 74.6 | > 100 µM (inactive) | 63.5 µM (inactive) | > 100 µM (inactive) | > 100 µM (inactive) |
| CN(CCCN1CCCC1)CCCN(C)C(=O)Cc1ccc(Cl)c(Cl)c1 | 21 µM (inactive) | 12.2 µM (inactive) | 16.7 µM (inactive) | 8.87 µM (inactive) | > 73.3 µM (inactive) | 16.6 µM (inactive) | 5.75 µM (inactive) | 11.9 µM (inactive) | 12.6 µM (inactive) | 6.85 µM (inactive) | 3.04 µM (inactive) | 18.6 µM (inactive) | 27.6 µM (inactive) | 14.9 µM (inactive) | 26.9 µM (inactive) | 26.1 | 3.77 µM (inactive) | 4.61 µM (inactive) | 19.2 µM (inactive) | 5.85 µM (inactive) |
| C/C(=N\Nc1nc2ccccc2s1)c1ccncn1 | 0.379 µM (active) | 7.74 µM (inactive) | 1.39 µM (inactive) | 0.603 µM (active) | 0.351 µM (active) | 0.348 µM (active) | 0.973 µM (active) | 0.641 µM (active) | 0.499 µM (active) | 0.117 µM (active) | 2.69 µM (inactive) | 2.22 µM (inactive) | 0.0673 µM (active) | 1.3 µM (inactive) | 3.02 µM (inactive) | 0.661 | 0.0311 µM (active) | 1 µM (active) | 2.28 µM (inactive) | 6.03 µM (inactive) |
| CC(C)(C)OC(=O)N1C(OP(=O)(Oc2ccccc2)Oc2ccccc2)=CSc2ccccc21 | 56.6 µM (inactive) | 41.8 µM (inactive) | 72.8 µM (inactive) | 59 µM (inactive) | 43.2 µM (inactive) | 28.5 µM (inactive) | 38.3 µM (inactive) | 31.8 µM (inactive) | 24 µM (inactive) |  | 31.3 µM (inactive) | 67.8 µM (inactive) | 27.5 µM (inactive) | 32.9 µM (inactive) | 43.2 µM (inactive) | 37.5 | 50.2 µM (inactive) | 17.8 µM (inactive) | 47.6 µM (inactive) | 45.8 µM (inactive) |
| O=C(c1ccco1)N1CCN(C(=O)c2ccco2)C1=S | 4.18 µM (inactive) | 2.88 µM (inactive) | 3.33 µM (inactive) | 6.01 µM (inactive) | 21.1 µM (inactive) | 2.99 µM (inactive) | 1.87 µM (inactive) | 1.79 µM (inactive) | 11.6 µM (inactive) | 1.77 µM (inactive) | 3.59 µM (inactive) | 7.74 µM (inactive) | 8.07 µM (inactive) | 10 µM (inactive) | 24.4 µM (inactive) | 6.24 | 8.05 µM (inactive) | 2.02 µM (inactive) | 10.6 µM (inactive) | 20.7 µM (inactive) |
| O=c1c2cccnc2[nH]c2ccc3scnc3c12 | 6.24 µM (inactive) | 3.11 µM (inactive) | 6.95 µM (inactive) | > 10 µM (inactive) | 8.91 µM (inactive) | > 10 µM (inactive) |  | 4.32 µM (inactive) | > 10 µM (inactive) | 5.27 µM (inactive) | 9.82 µM (inactive) | 3.96 µM (inactive) | 1.87 µM (inactive) | > 10 µM (inactive) | > 10 µM (inactive) | 4.92 | 4.72 µM (inactive) | > 10 µM (inactive) | > 10 µM (inactive) | > 10 µM (inactive) |
| CCCCCCC1OC23OC1CCC2C(O)CCC3O (stereo not given) | > 100 µM (inactive) | > 100 µM (inactive) | > 100 µM (inactive) | > 100 µM (inactive) | > 100 µM (inactive) | > 100 µM (inactive) | > 100 µM (inactive) | > 100 µM (inactive) | > 100 µM (inactive) |  | > 100 µM (inactive) |  | 97.7 µM (inactive) | > 100 µM (inactive) | > 100 µM (inactive) | > 100 | > 100 µM (inactive) | > 100 µM (inactive) | > 100 µM (inactive) | > 100 µM (inactive) |

From ChEMBL document CHEMBL1201862, “PubChem BioAssay data set” (2004)
